Assay results: US20220098159A1, “CARBAMATE DERIVATIVES AND USES THEREOF” (Nodthera Limited, priority 2019, published 2022)
Like-named read-outs stand apart in the source and are kept apart here.

System: IL-1β release upon NLRP3 activation in peripheral blood mononuclear cells (PBMC)
Experiment: PBMC IC50 determination assay (inhibition of IL-1β release upon NLRP3 activation)
Type: cell-based
Conditions: Homo sapiens
Protocol: The compounds of the present disclosure were tested for their inhibitory activity against IL-1β release upon NLRP3 activation in peripheral blood mononuclear cells (PBMC).
Protocol A. PBMC were isolated from buffy coats by density gradient centrifugation on Histopaque-1077 (Sigma, cat no. 10771). Isolated cells were seeded into the wells of a 96-well plate and incubated for 3 h with lipopolysaccharide (LPS). Following medium exchange, the compounds of the present disclosure were added (a single compound per well) and the cells were incubated for 30 min. Next, the cells were stimulated either with ATP (5 mM) or nigericin (10 μM) for 1 h and the cell culture media from the wells were collected for further analysis.
The release of IL-1β into the media was determined by a quantitative detection of IL-1β in the media using an IL-1β enzyme-linked immunosorbent assay (ELISA) Ready-SET-Go!, eBioscience cat. No. 88-7261-88. Briefly, in a first step, high affinity binding plates (Corning, Costar 9018 or NUNC Maxisorp Cat No. 44-2404) were coated overnight at 4° C. with specific capture antibody included in the kit (anti-human IL-1β ref. 14-7018-68). Subsequently, plates were blocked with blocking buffer for 1 h at room temperature (rt) and after washing with a buffer (PBS with 0.05% Tween-20) incubated with protein standard and culture media. After 2 h of incubation at rt, plates were washed and incubated with biotinylated detection antibody included in the kit (anti-human IL-1β Biotin ref. 33-7110-68) for 1 h at rt. Plates were washed and incubated with HRP-streptavidin for 30 min at rt and washed again. The signal was developed after addition of 3,3′,5,5′-tetramethylbenzidine-peroxidase (TMB) until colour appeared and the reaction was stopped by 2 M H2SO4. A microplate spectrophotometer (BioTek) was used to detect signals with 450 nm. The detection range of IL-1β ELISA was 2-150 ng/ml.
Protocol B. PBMC were isolated from buffy coats by density gradient centrifugation on Histopaque-1077 (Sigma, cat no. 10771). Isolated cells were seeded into the wells (280,000 cells/well) of a 96-well plate and incubated for 3 h with lipopolysaccharide (LPS, 1 μg/ml diluted 1000× from a 1 mg/ml stock solution). The compounds of the present disclosure were added (a single compound per well) and the cells were incubated for 30 min. Next, the cells were stimulated with ATP (5 mM final concentration diluted 20× from a 100 mM stock solution) for 1 h and the cell culture media from the wells were collected for further analysis.
The release of IL-1β into the media was determined by quantitative detection of IL-1β in the media using HTRF®, CisBio cat. No. 62HIL1BPEH. Briefly, cell culture supernatant were dispensed directly into the assay plate containing antibodies labelled with the HTRF® donor and acceptor. A microplate spectrophotometer (BMG) was used to detect signals at 655 nm and 620 nm. The detection range of IL-1β HTRF® was 39-6500 pg/ml.

[1] = PBMC from buffy coats, LPS 3 h, compound 30 min, then ATP (5 mM) or nigericin (10 μM) 1 h, IL-1β in media by ELISA (Protocol A) or HTRF (Protocol B), read-out: Average PBMC IC50
[2] = PBMC, read-out: Average PBMC IC50 (μM)

## CCOC(=O)C(Cn1cccn1)OC(=O)N[C@@H](C)c1ccc(Cl)cc1 (stereo partly drawn) [Compound 1, Ethyl 2-({[(1S)-1-(4-chlorophenyl)ethyl]carbamoyl}oxy)-3-(1H-pyrazol-1-yl)propanoate]
[1]
  IC50: 10 to 50 µM

## CCCC(NC(=O)OC(Cc1ncccn1)C(=O)OC(C)C)c1ccc(C(F)(F)F)cc1 (centres unmarked) [Compound 21, Propan-2-yl 3-(pyrimidin-2-yl)-2-[({1-[4-(trifluoromethyl)phenyl]butyl}carbamoyl)oxy]propanoate]
[2]
  IC50: 1 to 3 µM

## CC(C)OC(=O)[C@@H](Cn1cncn1)OC(=O)N[C@@H](C)c1ccc(C2CC2)cc1 [Compound 10, Propan-2-yl (2R)-2-({[(1S)-1-(4-cyclopropylphenyl)ethyl]carbamoyl}oxy)-3-(1H-1,2,4-triazol-1-yl)propanoate]
[2]
  IC50: < 1 µM

## CC(C)OC(=O)[C@@H](Cc1ncccn1)OC(=O)N[C@@H](C)c1ccc(C(F)(F)F)cc1Cl [Compound 25, Propan-2-yl (2R)-2-({[(1S)-1-[2-chloro-4-(trifluoromethyl)phenyl]ethyl]carbamoyl}oxy)-3-(pyrimidin-2-yl)propanoate]
[1]
  IC50: < 1 µM

## CC(C)OC(=O)C(Cc1ncccn1)OC(=O)N[C@@H](C)c1ccc(C(F)(F)F)cc1 (stereo partly drawn) [Compound 5, Propan-2-yl 3-(pyrimidin-2-yl)-2-({[(1S)-1-[4-(trifluoromethyl)phenyl]ethyl]carbamoyl}oxy)propanoate]
[1]
  IC50: < 1 µM

## CC(C)OC(=O)[C@@H](Cn1cncn1)OC(=O)N[C@@H](C)c1ccc(C(F)(F)F)nc1 [Compound 14, Propan-2-yl (2R)-3-(1H-1,2,4-triazol-1-yl)-2-({[(1S)-1-[6-(trifluoromethyl)pyridin-3-yl]ethyl]carbamoyl}oxy)propanoate]
[2]
  IC50: 10 to 50 µM

## C[C@H](NC(=O)O[C@H](Cc1ncccn1)C(=O)O)c1ccc(C(F)(F)F)cc1Cl [Compound 26, (2R)-2-({[(1S)-1-[2-Chloro-4-(trifluoromethyl)phenyl]ethyl]carbamoyl}oxy)-3-(pyrimidin-2-yl)propanoic acid]
[1]
  IC50: 3 to 10 µM

## CC(C)OC(=O)[C@@H](Cn1cncn1)OC(=O)N[C@@H](C)c1ccc(C(C)C)cc1 [Compound 13, Propan-2-yl (2R)-2-({[(1S)-1-[4-(propan-2-yl)phenyl]ethyl]carbamoyl}oxy)-3-(1H-1,2,4-triazol-1-yl)propanoate]
[2]
  IC50: < 1 µM

## CC(C)OC(=O)C(Cc1ncccn1)OC(=O)NC(C)c1ccc(C(F)(F)F)cc1Cl (centres unmarked) [Compound 16, Isopropyl 2-[1-[2-chloro-4-(trifluoromethyl)phenyl]ethylcarbamoyloxy]-3-pyrimidin-2-yl-propaneate]
[1]
  IC50: < 1 µM

## CC(C)OC(=O)[C@@H](Cn1cncn1)OC(=O)N[C@@H](C)c1ccc(C(C)(C)C)cc1 [Compound 6, Propan-2-yl (2R)-2-({[(1S)-1-(4-tert-butylphenyl)ethyl]carbamoyl}oxy)-3-(1H-1,2,4-triazol-1-yl)propanoate]
[1]
  IC50: < 1 µM

## CC(C)OC(=O)[C@@H](Cn1cncn1)OC(=O)N[C@H](C)c1ccc(C(F)(F)F)nc1 [Compound 15, Propan-2-yl (2R)-3-(1H-1,2,4-triazol-1-yl)-2-({[(1R)-1-[6-(trifluoromethyl)pyridin-3-yl]ethyl]carbamoyl}oxy)propanoate]
[2]
  IC50: 10 to 50 µM

## CCc1cc(C(F)(F)F)ccc1C(C)NC(=O)OC(Cc1ncccn1)C(=O)OC(C)C (centres unmarked) [Compound 22, Propan-2-yl 2-[({1-[2-ethyl-4-(trifluoromethyl)phenyl]ethyl}carbamoyl)oxy]-3-(pyrimidin-2-yl)propanoate]
[1]
  IC50: < 1 µM

## CC(C)OC(=O)[C@@H](Cn1cncn1)OC(=O)N[C@@H](C)c1ccc(OCC(F)(F)F)cc1 [Compound 7, Propan-2-yl (2R)-3-(1H-1,2,4-triazol-1-yl)-2-({[(1S)-1-[4-(2,2,2-trifluoroethoxy)phenyl]ethyl]carbamoyl}oxy)propanoate]
[1]
  IC50: < 1 µM

## CC(C)OC(=O)[C@@H](Cn1cncn1)OC(=O)NC(C)c1ncc(C(F)(F)F)cn1 (stereo partly drawn) [Compound 18, Propan-2-yl (2R)-3-(1H-1,2,4-triazol-1-yl)-2-[({1-[5-(trifluoromethyl)pyrimidin-2-yl]ethyl}carbamoyl)oxy]propanoate]
[1]
  IC50: 3 to 10 µM

## CC(C)OC(=O)[C@@H](Cc1ncccn1)OC(=O)N(C)[C@@H](C)c1ccc(C(F)(F)F)cc1Cl [Compound 27, Propan-2-yl (2R)-2-({[(1S)-1-[2-chloro-4-(trifluoromethyl)phenyl]ethyl](methyl)carbamoyl}oxy)-3-(pyrimidin-2-yl)propanoate]
[1]
  IC50: 1 to 3 µM

## CC(C)OC(=O)[C@@H](Cn1cncn1)OC(=O)N[C@@H](C)c1ccc(COc2ccccc2)cc1 [Compound 8, Propan-2-yl (2R)-2-({[(1S)-1-[4-(phenoxymethyl)phenyl]ethyl]carbamoyl}oxy)-3-(1H-1,2,4-triazol-1-yl)propanoate]
[1]
  IC50: 1 to 3 µM

## CC(C)OC(=O)[C@@H](Cn1cncn1)OC(=O)N[C@@H](C)c1ccc(C(F)(F)F)cc1 [Compound 11, Propan-2-yl (2R)-3-(1H-1,2,4-triazol-1-yl)-2-({[(1S)-1-[4-(trifluoromethyl)phenyl]ethyl]carbamoyl}oxy)propanoate]
[1]
  IC50: < 1 µM

## CC(C)OC(=O)[C@@H](Cn1cncn1)OC(=O)N[C@@H](C)c1ccc(C(F)(F)F)c(F)c1 [Compound 9, Propan-2-yl (2R)-2-({[(1S)-1-[3-fluoro-4-(trifluoromethyl)phenyl]ethyl]carbamoyl}oxy)-3-(1H-1,2,4-triazol-1-yl)propanoate]
[1]
  IC50: < 1 µM

## CC(C)OC(=O)[C@@H](Cc1ncccn1)OC(=O)N[C@@H](C)c1ccc(C(F)(F)F)cc1 [Compound 23, Propan-2-yl (2R)-3-(pyrimidin-2-yl)-2-({[(1S)-1-[4-(trifluoromethyl)phenyl]ethyl]carbamoyl}oxy)propanoate]
[1]
  IC50: < 1 µM

## COc1cc(C(F)(F)F)ccc1C(C)NC(=O)OC(Cc1ncccn1)C(=O)OC(C)C (centres unmarked) [Compound 19, Propan-2-yl 2-[({1-[2-methoxy-4-(trifluoromethyl)phenyl]ethyl}carbamoyl)oxy]-3-(pyrimidin-2-yl)propanoate]
[1]
  IC50: < 1 µM

## CC(C)OC(=O)C(Cc1ncccn1)OC(=O)N[C@@H](C)c1ccc(Cl)c(Cl)c1 (stereo partly drawn) [Compound 2, Propan-2-yl 2-({[(1S)-1-(3,4-dichlorophenyl)ethyl]carbamoyl}oxy)-3-(pyrimidin-2-yl)propanoate]
[2]
  IC50: 10 to 50 µM

## CC(C)OC(=O)C(Cc1ncccn1)OC(=O)N[C@@H](C)c1ccc(C#N)cc1 (stereo partly drawn) [Compound 4, Propan-2-yl 2-({[(1S)-1-(4-cyanophenyl)ethyl]carbamoyl}oxy)-3-(pyrimidin-2-yl)propanoate]
[1]
  IC50: 1 to 3 µM

## CCc1ccc([C@H](C)NC(=O)O[C@H](Cn2cncn2)C(=O)OC(C)C)cc1 [Compound 12, Propan-2-yl (2R)-2-({[(1S)-1-(4-ethylphenyl)ethyl]carbamoyl}oxy)-3-(1H-1,2,4-triazol-1-yl)propanoate]
[2]
  IC50: < 1 µM

## CC(C)OC(=O)C(Cc1ncccn1)OC(=O)N[C@@H](C)c1ccc(Cl)cc1 (stereo partly drawn) [Compound 3, Propan-2-yl 2-({[(1S)-1-(4-chlorophenyl)ethyl]carbamoyl}oxy)-3-(pyrimidin-2-yl)propanoate]
[1]
  IC50: < 1 µM

## C[C@H](NC(=O)O[C@H](Cc1ncccn1)C(=O)O)c1ccc(C(F)(F)F)cc1 [Compound 24, (2R)-3-(Pyrimidin-2-yl)-2-({[(1S)-1-[4-(trifluoromethyl)phenyl]ethyl]carbamoyl}oxy)propanoic acid]
[1]
  IC50: 3 to 10 µM

## Cc1cc(C(F)(F)F)ccc1C(C)NC(=O)OC(Cc1ncccn1)C(=O)OC(C)C (centres unmarked) [Compound 20, Isopropyl 2-[1-[2-methyl-4-(trifluoromethyl)phenyl]ethylcarbamoyloxy]-3-pyrimidin-2-yl-propanoate]
[1]
  IC50: < 1 µM
